Test results: PubChem BioAssay (NCI)
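1) Cells in 96-well plates. 2) Compound, 48 h, 5 concentrations. 3) Linear interpolation between surrounding doses. 4) Unreached endpoint = highest concentration. The concentration for 50% growth inhibition is given as GI50. TGI: concentration producing complete growth inhibition.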

Experiments:
Test in all cases: NCI-60 cell line screen, 48 h
CCRF-CEM leukemia = system: CCRF-CEM leukemia
SK-MEL-5 melanoma = system: SK-MEL-5 melanoma
OVCAR-5 ovarian = system: OVCAR-5 ovarian
ACHN renal = system: ACHN renal
TK-10 renal = system: TK-10 renal
PC-3 prostate = system: PC-3 prostate
MDA-MB-435 = system: MDA-MB-435
MCF7 breast = system: MCF7 breast
MDA-MB-231 breast = system: MDA-MB-231 breast
BT-549 breast = system: BT-549 breast

Structure (SMILES)	GI50 (CCRF-CEM leukemia)	TGI (CCRF-CEM leukemia)	GI50 (SK-MEL-5 melanoma)	TGI (SK-MEL-5 melanoma)	GI50 (OVCAR-5 ovarian)	TGI (OVCAR-5 ovarian)	GI50 (ACHN renal)	TGI (ACHN renal)	GI50 (TK-10 renal)	TGI (TK-10 renal)	GI50 (PC-3 prostate)	TGI (PC-3 prostate)	GI50 (MDA-MB-435)	TGI (MDA-MB-435)	GI50 (MCF7 breast)	TGI (MCF7 breast)	GI50 (MDA-MB-231 breast)	TGI (MDA-MB-231 breast)	GI50 (BT-549 breast)	TGI (BT-549 breast)
C[CH2][Sn]([CH2]C)([O]C(=O)c1ccccc1F)[O][Sn]([CH2]C)([CH2]C)[O]C(=O)c1ccccc1F	4.67 µM	21.6 µM	41.2 µM	> 70.3 µM	> 49.3 µM	> 71.4 µM	18.7 µM	33 µM	18 µM	32.1 µM										
COc1ccc(CC(=O)c2ccc(O)cc2O)cc1	49.4 µM	> 100 µM	48.3 µM	> 100 µM	> 100 µM	> 100 µM	> 100 µM	> 100 µM			41.1 µM	> 100 µM	> 100 µM	> 100 µM	> 100 µM	> 100 µM	> 100 µM	> 100 µM	66.2 µM	> 100 µM
O=S(=O)(/C=C/CS(=O)(=O)c1ccccc1)c1ccccc1		> 100 µM		> 100 µM		> 100 µM		> 100 µM		> 100 µM										
O=C1/C(=N\O)S(=O)(=O)c2ccccc21		> 100 µM		> 100 µM		> 100 µM		> 100 µM		> 100 µM										
Cc1ccc(-c2csc(NC(=O)N3CCN(c4cc5c(cc4F)c(=O)c(C(=O)O)cn5C4CC4)CC3)n2)cc1	0.451 µM	> 100 µM	0.889 µM	2.51 µM	0.867 µM	> 100 µM	0.307 µM	4.22 µM			0.454 µM	> 100 µM	2.06 µM	> 100 µM	0.49 µM	> 100 µM	1.78 µM	19.4 µM	0.345 µM	2.65 µM
Nc1ncnc2c1c(-c1ccc(Oc3ccccc3)cc1)nn2C[C@@H]1SSC[C@H]1O	0.278 µM	> 100 µM	0.874 µM	2.3 µM	3.47 µM	26.6 µM	2.02 µM	10.5 µM	1.49 µM	3.16 µM	3.23 µM	15.5 µM			0.898 µM	3.79 µM	1.8 µM	5.45 µM	3.58 µM	11.6 µM
CCC[CH2][Sn]1([CH2]CCC)[O]C2C(CO)OC(n3ccc(N)nc3=O)C2[O]1 (stereo unspecified)			1.61 µM	2.99 µM	1.57 µM	3.03 µM	1.35 µM	2.67 µM	1.15 µM	2.38 µM	1.66 µM	3.26 µM	1.41 µM	2.88 µM	0.3 µM	1.42 µM	0.818 µM	2.19 µM	1.42 µM	2.73 µM
CC(C)(c1ccccc1)c1ccc(Oc2ccc(C#N)c(C#N)c2)cc1		> 100 µM		> 100 µM	> 100 µM	> 100 µM		> 100 µM	> 100 µM	> 100 µM										
CC1(C)CC2CC(CC(C)(C)C2=O)C1=O		> 100 µM		> 100 µM		> 100 µM		> 100 µM		> 100 µM										
COc1cccc(-c2cc3c4c(nc5ccccc53)C(=O)c3cccnc3-c4n2)c1			0.578 µM	1.76 µM	3.05 µM	8.92 µM	2.21 µM	9.82 µM	5.03 µM	> 64.8 µM	2.73 µM	12.8 µM	1.18 µM	2.57 µM	0.418 µM	> 100 µM	4.61 µM	> 37.8 µM	10.6 µM	28.1 µM
CNC(=O)OCc1c2ccncc2c(C)c2c1[nH]c1ccc(OC)cc12		1.29 µM				0.808 µM		0.563 µM		> 100 µM										
COc1ccc(C(=O)/C=C/c2cccc(Nc3ccnc4cc(Cl)ccc34)c2)cc1	2.88 µM	> 100 µM			2.6 µM	> 100 µM			1.64 µM	4.59 µM	2.51 µM	> 100 µM	2.13 µM	> 100 µM	1.82 µM	> 100 µM				
CC(=O)[CH-]C(=O)c1ccccc1.CC(=O)[CH-]C(=O)c1ccccc1.CC(=O)[CH-]C(=O)c1ccccc1.[In+3]	11.6 µM	49.4 µM			42.7 µM	> 100 µM	35 µM	> 100 µM	> 100 µM	> 100 µM										
O=C(NC(=Nc1ccccc1)SCCSC(=Nc1ccccc1)NC(=O)c1cccs1)c1cccs1		> 100 µM		74 µM		> 100 µM		> 100 µM		> 100 µM										
CC(C)(C)c1[nH]nc2c1C(c1cc3ccccc3[nH]c1=O)Nc1cc(C(=O)OCc3ccccc3)ccc1N2 (stereo unspecified)	3.23 µM	> 100 µM			4.05 µM	> 100 µM	4.25 µM	> 100 µM	3.83 µM	19.6 µM	2.7 µM	> 100 µM	2.95 µM	> 100 µM	3.37 µM	> 100 µM	5.91 µM	> 100 µM	3.35 µM	> 100 µM
CCOC(=O)C1CCCCN1C(=O)c1ccc(Nc2cnc3cc(C(F)(F)F)ccc3n2)cc1 (stereo unspecified)			12.4 µM	25.1 µM	10.3 µM	23 µM	15.4 µM	43.4 µM	13.3 µM	28 µM	11.5 µM	26.9 µM	14.7 µM	28.3 µM	10.2 µM	25.1 µM	2.86 µM	5.66 µM	20.1 µM	38.7 µM
O=C(N/C(=C\c1ccc(/C=C(\NC(=O)c2ccccc2)c2nc3ccccc3[nH]2)cc1)c1nc2ccccc2[nH]1)c1ccccc1		> 100 µM		> 100 µM		> 100 µM		> 100 µM		> 100 µM										
COc1ccc(COC2CC(OC)OC(C)C2OC(=O)c2ccccc2)cc1 (stereo unspecified)		> 100 µM		31.9 µM		> 94.7 µM		> 88.4 µM		> 100 µM										
Oc1c(Cl)c(Cl)c(O)c2c1CCCC2		5.05 µM		25.7 µM				3.27 µM		9.14 µM		36.7 µM		34.1 µM		4.56 µM		41.9 µM		28.1 µM
